The first assay deals with human integrin αvβ6 (Homo sapiens (Human), UniProt P06756+P18564). Briefly: Proximity-based integrin receptor binding assay (ALPHASCREEN) for inhibitor potency. Conditions: inhibition of binding of TGF-b1 LAP to human integrin αvβ6; values given in ranges. On the procedure:
To gauge the potency of inhibitors of binding to human integrin αvβ6, inhibitor compounds and integrin were incubated together with TGF-b1 LAP and biotinylated anti-LAP antibody plus acceptor and donor beads, following the manufacture's recommendations. The donor beads were coated with streptavidin. […] All incubations occurred at room temperatures in 50 mM Tris-HCl, pH 7.5, 0.1% BSA supplemented with 1 mM each CaCl2 and MgCl2.
The order of reagent addition was as follows:
1. Alpha-v-beta-6 integrin, test inhibitor compound, LAP, biotinylated anti-LAP antibody and acceptor beads were all added together.
2. After 2 hours, donor beads were added. After another 30 minute incubation, samples were then read.
Integrin binding was evaluated by exciting donor beads at 680 nm, and measuring the fluorescent signal produced, between 520-620 nm, using a Biotek Instruments (Winooski, Vt., USA) SynergyNeo2 multimode plate reader. […] Data analysis for IC50 determinations was carried out by nonlinear four parameter logistic regression analysis using Dotmatics ELN Software (Core Informatics Inc., Branford, Conn.).
(In general: In Alpha technology, singlet oxygen from a donor bead excites a nearby acceptor bead.)
Chain of human integrin αvβ6 (P06756 31-992): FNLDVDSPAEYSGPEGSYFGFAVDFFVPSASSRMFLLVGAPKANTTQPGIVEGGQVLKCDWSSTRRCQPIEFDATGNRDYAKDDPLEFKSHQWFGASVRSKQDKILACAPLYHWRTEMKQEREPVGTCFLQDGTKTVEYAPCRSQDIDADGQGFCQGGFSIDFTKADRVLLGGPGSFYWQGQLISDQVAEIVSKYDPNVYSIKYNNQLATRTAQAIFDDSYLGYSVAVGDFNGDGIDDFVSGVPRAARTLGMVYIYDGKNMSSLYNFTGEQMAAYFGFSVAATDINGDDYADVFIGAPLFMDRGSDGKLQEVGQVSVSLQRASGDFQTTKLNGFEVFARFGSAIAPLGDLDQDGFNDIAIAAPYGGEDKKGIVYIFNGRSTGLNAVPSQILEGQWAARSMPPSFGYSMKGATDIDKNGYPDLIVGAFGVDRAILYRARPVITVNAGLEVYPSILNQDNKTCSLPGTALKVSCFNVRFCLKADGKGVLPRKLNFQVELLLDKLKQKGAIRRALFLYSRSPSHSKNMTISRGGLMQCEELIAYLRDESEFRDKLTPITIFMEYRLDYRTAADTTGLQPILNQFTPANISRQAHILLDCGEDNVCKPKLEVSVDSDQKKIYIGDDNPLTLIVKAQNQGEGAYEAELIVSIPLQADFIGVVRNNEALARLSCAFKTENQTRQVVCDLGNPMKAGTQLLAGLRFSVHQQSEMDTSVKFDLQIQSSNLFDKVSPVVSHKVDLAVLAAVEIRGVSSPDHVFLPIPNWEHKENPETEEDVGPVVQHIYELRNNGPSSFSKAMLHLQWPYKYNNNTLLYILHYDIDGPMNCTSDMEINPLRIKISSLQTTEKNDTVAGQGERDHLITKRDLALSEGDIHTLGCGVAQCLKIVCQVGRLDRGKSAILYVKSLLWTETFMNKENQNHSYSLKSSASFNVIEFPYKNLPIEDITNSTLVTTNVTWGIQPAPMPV
Chain of human integrin αvβ6 (P18564 22-707): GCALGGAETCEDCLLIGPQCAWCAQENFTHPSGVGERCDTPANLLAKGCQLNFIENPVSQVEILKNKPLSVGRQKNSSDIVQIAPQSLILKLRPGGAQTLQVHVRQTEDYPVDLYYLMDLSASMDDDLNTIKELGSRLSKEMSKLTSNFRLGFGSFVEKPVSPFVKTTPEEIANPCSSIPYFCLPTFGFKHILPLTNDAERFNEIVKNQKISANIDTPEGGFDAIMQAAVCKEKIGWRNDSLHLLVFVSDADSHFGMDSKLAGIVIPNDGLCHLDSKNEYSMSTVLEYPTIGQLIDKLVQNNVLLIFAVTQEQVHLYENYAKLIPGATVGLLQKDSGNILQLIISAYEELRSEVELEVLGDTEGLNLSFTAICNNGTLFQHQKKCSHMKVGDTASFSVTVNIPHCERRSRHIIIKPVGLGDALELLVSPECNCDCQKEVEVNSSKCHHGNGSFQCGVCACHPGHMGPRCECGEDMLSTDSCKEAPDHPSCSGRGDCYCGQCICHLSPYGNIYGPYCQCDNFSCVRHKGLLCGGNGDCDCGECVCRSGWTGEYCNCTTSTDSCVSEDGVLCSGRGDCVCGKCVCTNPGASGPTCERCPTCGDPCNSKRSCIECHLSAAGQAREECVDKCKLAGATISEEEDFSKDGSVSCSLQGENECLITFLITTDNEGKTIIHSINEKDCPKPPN
On to `CCCCC(=O)NC(CCOCCCCc1ccc2c(n1)NCCC2)C(=O)O` (stereo not shown) [Compound 8, N-pentanoyl-O-(4-(5,6,7,8-tetrahydro-1,8-naphthyridin-2-yl)butyl)homoserine], for which the IC50 is 250 to 1000 nM.

Consider `O=C(NC(CCO[C@H]1C[C@H](CCc2ccc3c(n2)NCCC3)C1)C(=O)O)OC1CCC1c1ccccc1` (stereo partly drawn) [Compound 142, N-((2-phenylcyclobutoxy)carbonyl)-O-(trans-3-(2-(5,6,7,8-tetrahydro-1,8-naphthyridin-2-yl)ethyl)cyclobutyl)homoserine], for which the IC50 was 50 to 250 nM.

For the compound `O=C(O)C(CCO[C@H]1C[C@H](CCc2ccc3c(n2)NCCC3)C1)NC(=O)[C@H](O)c1ccccc1` (stereo partly drawn) [Compound 81, N—((R)-2-hydroxy-2-phenylacetyl)-O-(trans-3-(2-(5,6,7,8-tetrahydro-1,8-naphthyridin-2-yl)ethyl)cyclobutyl)homoserine], the IC50 is more than 1000 nM.

In the case of `O=C(N[C@@H](CCO[C@H]1C[C@H](CCc2ccc3c(n2)NCCC3)C1)C(=O)O)O[C@@H]1CCCC[C@H]1c1ccccc1` [Compound 144, N-((((1R,2S)-2-phenylcyclohexyl)oxy)carbonyl)-O-(trans-3-(2-(5,6,7,8-tetrahydro-1,8-naphthyridin-2-yl)ethyl)cyclobutyl)homoserine], the 50% inhibitory concentration (IC50) lay within 250 to 1000 nM.

For `O=C(O)C(CCO[C@H]1C[C@H](CCc2ccc3c(n2)NCCC3)C1)NC(=O)C1(c2ccccc2)CC1` (stereo partly drawn) [Compound 97, N-(1-phenylcyclopropane-1-carbonyl)-O-(trans-3-(2-(5,6,7,8-tetrahydro-1,8-naphthyridin-2-yl)ethyl)cyclobutyl)homoserine], the half-maximal inhibitory concentration (IC50) is less than 50 nM.

For the compound `O=C(NC(CCO[C@H]1C[C@H](CCc2ccc3c(n2)NCCC3)C1)C(=O)O)c1cccc(F)c1Cl` (stereo partly drawn) [Compound 64, N-(2-chloro-3-fluorobenzoyl)-O-(trans-3-(2-(5,6,7,8-tetrahydro-1,8-naphthyridin-2-yl)ethyl)cyclobutyl)homoserine], the IC50 is less than 50 nM.

For `O=C(N[C@@H](CCO[C@H]1C[C@H](CCc2ccc3c(n2)NCCC3)C1)C(=O)O)c1ccc(Cl)cc1` [Compound 17, N-(4-chlorobenzoyl)-O-(trans-3-(2-(5,6,7,8-tetrahydro-1,8-naphthyridin-2-yl)ethyl)cyclobutyl)homoserine], the IC50 was less than 50 nM.

Regarding `CC1(C(=O)NC(CCO[C@H]2C[C@H](CCc3ccc4c(n3)NCCC4)C2)C(=O)O)COC1` (stereo partly drawn) [Compound 88, N-(3-methyloxetane-3-carbonyl)-O-(trans-3-(2-(5,6,7,8-tetrahydro-1,8-naphthyridin-2-yl)ethyl)cyclobutyl)homoserine], the IC50 was in the range of 50 to 250 nM.

On to `CC(C)(CO)C(=O)NC(CCO[C@H]1C[C@H](CCc2ccc3c(n2)NCCC3)C1)C(=O)O` (stereo partly drawn) [Compound 104, N-(3-hydroxy-2,2-dimethylpropanoyl)-O-(trans-3-(2-(5,6,7,8-tetrahydro-1,8-naphthyridin-2-yl)ethyl)cyclobutyl)homoserine], for which the IC50 is less than 50 nM.

Turning to `O=C(N[C@@H](CCO[C@H]1C[C@H](CCc2ccc3c(n2)NCCC3)C1)C(=O)O)O[C@H]1C[C@@H](c2ccccc2)C1` [Compound 143, N-((cis-3-phenylcyclobutoxy)carbonyl)-O-(trans-3-(2-(5,6,7,8-tetrahydro-1,8-naphthyridin-2-yl)ethyl)cyclobutyl)homoserine], the IC50 lay in the range of 250 to 1000 nM.

Consider `O=C(N[C@@H](CCO[C@H]1C[C@H](CCc2ccc3c(n2)NCCC3)C1)C(=O)O)c1c(F)cccc1Cl` [Compound 31, N-(2-chloro-6-fluorobenzoyl)-O-(trans-3-(2-(5,6,7,8-tetrahydro-1,8-naphthyridin-2-yl)ethyl)cyclobutyl)homoserine], for which the IC50 was less than 50 nM.

On to `Cn1ccc2c(C(=O)N[C@@H](CCO[C@H]3C[C@H](CCc4ccc5c(n4)NCCC5)C3)C(=O)O)ccnc21` [Compound 41, N-(1-methyl-1H-pyrrolo[2,3-b]pyridine-4-carbonyl)-O-(trans-3-(2-(5,6,7,8-tetrahydro-1,8-naphthyridin-2-yl)ethyl)cyclobutyl)homoserine], for which the IC50 is less than 50 nM.

For `O=C(N[C@@H](CCO[C@H]1C[C@H](CCc2ccc3c(n2)NCCC3)C1)C(=O)O)c1ccccn1` [Compound 35, N-picolinoyl-O-(trans-3-(2-(5,6,7,8-tetrahydro-1,8-naphthyridin-2-yl)ethyl)cyclobutyl)homoserine], the half-maximal inhibitory concentration (IC50) is 50 to 250 nM.

Regarding `CS(=O)(=O)CCCC(=O)N[C@@H](CCO[C@H]1C[C@H](CCc2ccc3c(n2)NCCC3)C1)C(=O)O` [Compound 135, N-(4-(methylsulfonyl)butanoyl)-O-(trans-3-(2-(5,6,7,8-tetrahydro-1,8-naphthyridin-2-yl)ethyl)cyclobutyl)homoserine], the IC50 was in the range of 50 to 250 nM.

For the compound `O=C(O)C(CCO[C@H]1C[C@H](CCc2ccc3c(n2)NCCC3)C1)NC(=O)[C@@H](CO)c1ccccc1` (stereo partly drawn) [Compound 42, N—((R)-3-hydroxy-2-phenylpropanoyl)-O-(trans-3-(2-(5,6,7,8-tetrahydro-1,8-naphthyridin-2-yl)ethyl)cyclobutyl)homoserine], the IC50 was 50 to 250 nM.

As to `O=C(N[C@@H](CCO[C@H]1C[C@H](CCc2ccc3c(n2)NCCC3)C1)C(=O)O)c1cccc(F)c1F` [Compound 23, N-(2,3-difluorobenzoyl)-O-(trans-3-(2-(5,6,7,8-tetrahydro-1,8-naphthyridin-2-yl)ethyl)cyclobutyl)homoserine], the IC50 was less than 50 nM.

“N-isonicotinoyl-O-(trans-3-(2-(5,6,7,8-tetrahydro-1,8-naphthyridin-2-yl)ethyl)cyclobutyl)-D-homoserine [Compound 58]”: the IC50 is more than 1000 nM.

As to `CC(C)(C(=O)N[C@@H](CCO[C@H]1C[C@H](CCc2ccc3c(n2)NCCC3)C1)C(=O)O)C1CCCCC1` [Compound 165, N-(2-cyclohexyl-2-methylpropanoyl)-O-(trans-3-(2-(5,6,7,8-tetrahydro-1,8-naphthyridin-2-yl)ethyl)cyclobutyl)homoserine], the IC50 is less than 50 nM.

Consider `O=C(N[C@@H](CCO[C@H]1C[C@H](CCc2ccc3c(n2)NCCC3)C1)C(=O)O)c1cccnc1` [Compound 36, N-nicotinoyl-O-(trans-3-(2-(5,6,7,8-tetrahydro-1,8-naphthyridin-2-yl)ethyl)cyclobutyl)homoserine], for which the IC50 was less than 50 nM.

Consider `CC(C)(Cc1ccccc1)C(=O)NC(CCO[C@H]1C[C@H](CCc2ccc3c(n2)NCCC3)C1)C(=O)O` (stereo partly drawn) [Compound 85, N-(2,2-dimethyl-3-phenylpropanoyl)-O-(trans-3-(2-(5,6,7,8-tetrahydro-1,8-naphthyridin-2-yl)ethyl)cyclobutyl)homoserine], for which the IC50 was 250 to 1000 nM.

For `O=C(O)C(CCO[C@H]1C[C@H](CCc2ccc3c(n2)NCCC3)C1)NC(=O)C1(c2ccccc2)CCC1` (stereo partly drawn) [Compound 84, N-(1-phenylcyclobutane-1-carbonyl)-O-(trans-3-(2-(5,6,7,8-tetrahydro-1,8-naphthyridin-2-yl)ethyl)cyclobutyl)homoserine], the IC50 was less than 50 nM.

For `CC(C)(C)C(=O)NC(CCO[C@H]1C[C@H](CCc2ccc3c(n2)NCCC3)C1)C(=O)O` (stereo partly drawn) [Compound 109, N-pivaloyl-O-(trans-3-(2-(5,6,7,8-tetrahydro-1,8-naphthyridin-2-yl)ethyl)cyclobutyl)homoserine], the IC50 is less than 50 nM.

Turning to `COCC(C)(C)C(=O)NC(CCO[C@H]1C[C@H](CCc2ccc3c(n2)NCCC3)C1)C(=O)O` (stereo partly drawn) [Compound 105, N-(3-methoxy-2,2-dimethylpropanoyl)-O-(trans-3-(2-(5,6,7,8-tetrahydro-1,8-naphthyridin-2-yl)ethyl)cyclobutyl)homoserine], the IC50 is less than 50 nM.

`CC(C)(C)OC(=O)N1CC(C(=O)N[C@@H](CCO[C@H]2C[C@H](CCc3ccc4c(n3)NCCC4)C2)C(=O)O)C1` [Compound 173, N-(1-(tert-butoxycarbonyl)azetidine-3-carbonyl)-O-(trans-3-(2-(5,6,7,8-tetrahydro-1,8-naphthyridin-2-yl)ethyl)cyclobutyl)homoserine]: the IC50 is less than 50 nM.

For the compound “N—((R)-2-hydroxy-2-phenylacetyl)-O-(4-(5,6,7,8-tetrahydro-1,8-naphthyridin-2-yl)butyl)-D-homoserine [Compound 77]”, the IC50 is more than 1000 nM.

Take `O=C(N[C@@H](CCO[C@H]1C[C@H](CCc2ccc3c(n2)NCCC3)C1)C(=O)O)c1ccc(F)c(F)c1` [Compound 29, N-(3,4-difluorobenzoyl)-O-(trans-3-(2-(5,6,7,8-tetrahydro-1,8-naphthyridin-2-yl)ethyl)cyclobutyl)homoserine]: the IC50 was less than 50 nM.

For `CC(C)c1ccc(C2(OC(=O)N[C@@H](CCO[C@H]3C[C@H](CCc4ccc5c(n4)NCCC5)C3)C(=O)O)CN(C(=O)OC(C)(C)C)C2)cc1` [Compound 158, N-(((1-(tert-butoxycarbonyl)-3-(4-isopropylphenyl)azetidin-3-yl)oxy)carbonyl)-O-(trans-3-(2-(5,6,7,8-tetrahydro-1,8-naphthyridin-2-yl)ethyl)cyclobutyl)homoserine], the IC50 was less than 50 nM.

Staying with this assay, now noted: inhibition of binding of TGF-b1 LAP to human integrin αvβ6; values given in ranges; listed as 83*.
For `CC(C)(C(=O)NC(CCO[C@H]1C[C@H](CCc2ccc3c(n2)NCCC3)C1)C(=O)O)c1ccccc1` (stereo partly drawn) [Compound 83, N-(2-methyl-2-phenylpropanoyl)-O-(trans-3-(2-(5,6,7,8-tetrahydro-1,8-naphthyridin-2-yl)ethyl)cyclobutyl)homoserine], the IC50 is more than 1000 nM.

As a reminder, the IC50 is the concentration that inhibits the measured activity by half.

For the origin of these results see patent US11180494B2, “Substituted amino acids as integrin inhibitors” (Pliant Therapeutics, Inc., priority 2018, dated 2021).
